Test results taken from US7041280B2, “Aryl boronate functionalized polymers for treating obesity” (Genzyme Corporation, priority 2001, dated 2006).

System: fat absorption through lipase inhibition in rats
Details: rats gavaged with 4 mL olive oil emulsion with drug after 18 hour fast, intestinal contents after 8 hours; for In Vivo Infusion Assay in Rats ED50 (mg/g fat) or estimate: dose at half the maximum recoverable triglyceride; for In Vivo Infusion Assay in Rats Ed50 (mg/kg body wt) or estimate: dose per body weight
Description: Compounds were evaluated in rats to determine their in vivo potency in inhibiting fat absorption through lipase inhibition. Rats were acclimated to the facility for approximately 1 week in individual wire-bottom cages and provided a standard chow diet and water ad libitum. […] Test compounds were dissolved in DMSO or deionized water. Drug solutions were mixed thoroughly in the olive oil emulsion just prior to administration. After 8 hours, rats were euthanized with CO2 and the intestines were removed. The intestinal contents were harvested from the lower half of the small intestine and the cecum. Contents were placed in separate, pre-weighed, 15 milliliter conical screw cap tubes in a (dry ice/alcohol bath) to maintain freezing temperature until the final freeze of all samples. Samples were stored at −80° C. until lyophilization.
Samples were freeze-dried and ground, then analyzed for triglyceride and fatty acid.
A 20 milligram aliquot of each sample was weighed and transferred to a 15 milliliters conical tube. 3 milliliters of hexane were added to each tube, which were capped and vortexed for 15 seconds at high speed. 3 milliliters of 1 N HCl were added and the samples were then subjected to wrist-action shaking for 1 hour. Samples were then centrifuged for 5 minutes at 3500 rpm and the hexane layer was collected. An aliquot of the hexane layer was diluted in hexane and analyzed for triglyceride, diglyceride and fatty acid by HPLC as described above.
The data was expressed as follows. The milligrams of intestinal contents that was extracted and the total number of milligrams collected were recorded. The milligrams/milliliters values obtained from the HPLC analysis were entered. The individual lipid components were calculated and expressed as total milligrams recovered. Dose units are expressed as the milligrams of drug per gram of oil administered to each rat. The ED50's were determined by extrapolating the dose value at half the maximum obtainable triglyceride recoverable in the assay.

| Substance | In Vivo Infusion Assay in Rats ED50 (mg/g fat) or estimate | In Vivo Infusion Assay in Rats Ed50 (mg/kg body wt) or estimate |
| --- | --- | --- |
| Poly(N-diethanolaminopropyl)acrylamide conjugated with 4-(14′-hydroxy-3′-thia-1′-ketotetradecyl)-3-fluorophenylboronic acid [Polymer 5] | 50 mg/g fat | 375 mg/kg body wt |
| Poly(N-diethanolaminopropyl)acrylamide conjugated with 4-(14′-hydroxy-3′-thia-1′-ketotetradecyl)phenylboronic acid [Polymer 6] | 36 mg/g fat | 270 mg/kg body wt |
| poly(N-diethanolaminopropyl)acrylamide conjugated with 4-(14′-trimethylammonium-3′-thia-1′-ketotetradecyl)-3-fluorophenylboronic acid bromide [Polymer 1] | 3 mg/g fat | 22.5 mg/kg body wt |
| poly(N-diethanolaminopropyl)acrylamide conjugated with 4-(14′-trimethylammonium-3′-thia-1′-ketotetradecyl)-3-fluorophenylboronic acid bromide [Polymer 2] | 4.5 mg/g fat | 33.8 mg/kg body wt |
| poly(N-diethanolaminopropyl)acrylamide conjugated with 4-(14′-trimethylammonium-3′-thia-1′-ketotetradecyl)phenylboronic acid bromide [Polymer 3] | 20 mg/g fat | 150 mg/kg body wt |
